These are literature values, as cited in patent US20050065125A1, “2-alkylidene-19-nor-vitamin D derivatives for the treatment of osteopenia or male osteoporosis” (Pfizer Inc, priority 2003, published 2005).

Structures are written as SMILES.

For the series the following is noted: chronic mode, 7 days, rats.

`C=C1[C@H](O)CC(=C/C=C2\CCC[C@]3(C)[C@@H]([C@H](C)CCCC(C)(C)O)CC[C@@H]23)C[C@H]1O` [2-Methylene-19-Nor-1,25-(OH)2D3, 1α,25-dihydroxy-2-methylene-19-nor-vitamin D3]: the “Bone calcium mobilization (serum calcium) activity relative to the native hormone 1,25-(OH)2D3” value is on record as 10-100 times.

For `C=C1[C@H](O)CC(=C/C=C2\CCC[C@]3(C)[C@@H]([C@@H](C)CCCC(C)(C)O)CC[C@@H]23)C[C@H]1O` [2-Methylene-19-Nor-20S-1,25-(OH)2D3, (20S)-1α,25-dihydroxy-2-methylene-19-nor-vitamin D3], the “Bone calcium mobilization (serum calcium) activity relative to the native hormone 1,25-(OH)2D3” value is given as “at least 10 times”.
